# Like-named read-outs stand apart in the source and are kept apart here.
# How the values were obtained:
# ScHOS2 deletion mutant = experiment: Serial dilution sensitivity of yeast deletion strain to antifungal agents; format: cell-based, S. cerevisiae; settings: FIGS. 4-12
# Source text: (§1) Standard serial dilution techniques were used to determine sensitivity of yeast deletion strains to various antifungal agents.
# recombinant Hos2p.V5His6 = target: T1, recombinant Hos2p.V5His6 (Saccharomyces cerevisiae, UniProt P53096); experiment: HDAC assay with purified recombinant Hos2p.V5His6 fractions; format: biochemical, S. cerevisiae; settings: for IC50: read-out: IC50 (ug/ml)
# T1 construct: YGL194C/HOS2 from S. cerevisiae (residues 1-452 upstream the stop codon); made in house; host or cells: S. cerevisiae BY4742 or isogenic Δhos2 strain carrying pYES2.1.HOS2.V5His6 #7, galactose-induced
# T1 sequence (P53096 whole entry, the tested form may be a part): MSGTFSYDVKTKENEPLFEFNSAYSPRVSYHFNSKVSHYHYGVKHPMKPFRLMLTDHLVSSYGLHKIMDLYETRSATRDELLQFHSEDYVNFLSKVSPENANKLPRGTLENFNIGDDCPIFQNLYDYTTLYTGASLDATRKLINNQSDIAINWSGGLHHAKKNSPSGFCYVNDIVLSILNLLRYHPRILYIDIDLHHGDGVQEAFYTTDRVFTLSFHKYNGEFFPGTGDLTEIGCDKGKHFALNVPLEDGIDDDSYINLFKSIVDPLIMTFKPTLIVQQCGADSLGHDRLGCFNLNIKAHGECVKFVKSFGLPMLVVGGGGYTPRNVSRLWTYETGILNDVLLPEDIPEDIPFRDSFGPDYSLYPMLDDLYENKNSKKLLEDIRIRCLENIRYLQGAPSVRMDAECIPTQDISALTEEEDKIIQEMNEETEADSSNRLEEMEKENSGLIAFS
# Procedure: The induction of Hos2p.V5His6 expression by galactose was performed using either glucose or raffinose as the carbon source (pYES2.1 TOPO TA Expression Kit Manual, Invitrogen, cat. # K4150-01), Cell lysates were prepared from spheroplasts that had been generated from strains BY4742/pYES2.1.HOS2.V5His6 # 7 and Δhos2/pYES2.1.HOS2.V5His6 #7 grown in the presence or in the absence of galactose. Spheroplasts were prepared from cells that were grown in YEPD (BY4742, Δhos2), SC-URA+2% glucose or raffinose or SC-URA+1% glucose or raffinose+1% galactose (BY4742/pYES2.1.HOS2.V5His6 # 7 and Δhos2/pYES2.1.HOS2.V5His6 #7) by the lyticase method of Franzusoff et al. (1991). The collection of fractions containing or not Hos2pV5His6 was performed by IMAC using the H is GraviTrap Affinity Columns (GE Healthcare cat. # 11-033-99). Binding buffer was as recommended by the manufacturer, whereas three different elution buffers were used sequentially: 20 mM sodium phosphate+500 mM NaCl+100 mM, 250 mM or 500 mM imidazole, pH 7.4. Fractions were further desalted using PD-10 (GE Healthcare, cat. # 17-0851-01) and NAP-5 (GE Healthcare, cat. # 17-0853-02) desalting columns. Fractions that were eluted with the three different buffers containing 100, 250 or 500 mM imidazole, pH 7.4 and desalted were assayed for HDAC activity (see below). Only the corresponding fractions containing significant intrinsic HDAC activity (20 mM sodium phosphate+500 mM NaCl+250 mM imidazole) were kept for further studies.
# Fractions containing the recombinant Hos2p.V5His6 were incubated for 2 h with or without HDAC inhibitor (0-20 μg/ml). The HDAC activity that was specifically associated with the recombinant Hos2p.V5His6 expressed following galactose induction was determined assuming that
# FluoHos2p.V5His6 specific=Fluo+galactose−Fluo−galactose
# where Fluo+galactose=HDAC activity associated with all HDACs copurified along with Hos2p.V5His6 Fluo+glucose=HDAC activity associated with all HDACs copurified in the absence of Hos2p.V5His6
# HosB = settings: cited from earlier work
# A. nidulans Hda1 enzyme = settings: cited from earlier work
# Candida glabrata = settings: cited from earlier work
# C. albicans = settings: cited from earlier work
# ScRPD3 deletion mutant = experiment: Serial dilution sensitivity of yeast deletion strain to antifungal agents; format: cell-based, S. cerevisiae; settings: FIG. 3
# Source text: as §1
# [1] = tested on: WT/ScHOS2 and Δhos2/ScHOS2; experiment: MIC80 testing (CLSI M27-A2), complementation of Δhos2 by recombinant ScHos2p; format: cell-based, S. cerevisiae; settings: 72 hours, 30° C., FIG. 14
# Procedure: Minimum inhibitory concentration (MIC) testing was performed according to CLSI M27-A2 method for yeast testing using CSM-URA medium (Complete Synthetic Medium minus Uracile) containing either 2% raffinose or 1% raffinose+1% galactose as the carbon source. Itraconazole concentrations ranged from […]. Log-phase cells grown in CSM-URA+2% raffinose or CSM-URA+1% raffinose+1% galactose were inoculated at 5×10^3 cells/ml. The MIC80 of itraconazole was determined after 72 hours growth at 30° C.
structure (smiles),measurement,setting,value
Nc1nc(=O)[nH]cc1F [5-fluorocytosine],hypersensitivity of ScHOS2 deletion mutant to antifungal agent,ScHOS2 deletion mutant,not hypersensitive
C[C@@H]1[C@H](O)[C@@H](C)/C=C/C=C/C=C/C=C/C=C/C=C/C=C/[C@H](O[C@@H]2O[C@H](C)[C@@H](O)[C@H](N)[C@@H]2O)C[C@@H]2O[C@](O)(C[C@@H](O)C[C@@H](O)[C@H](O)CC[C@@H](O)C[C@@H](O)CC(=O)O[C@H]1C)C[C@H](O)[C@H]2C(=O)O [Amphotericin B],hypersensitivity of ScHOS2 deletion mutant to antifungal agent,ScHOS2 deletion mutant,not hypersensitive
O=C(Cc1ccc(CCCCc2ccccc2)cc1)NO [Compound 4],IC50,recombinant Hos2p.V5His6; Hos2 from S. cerevisiae BY4742/HOS2.V5His6 grown in glucose (GAL1 repressed) or galactose (induced),~14.1 µM
same,IC50,recombinant Hos2p.V5His6; Hos2 from S. cerevisiae BY4742/HOS2.V5His6 grown in raffinose (GAL1 repressed) or galactose (induced),~10.6 µM
same,inhibition at 5 µg/mL,"recombinant Hos2p.V5His6; read-out: % inhibition at 5 μg/ml, Hos2 from S. cerevisiae BY4742/HOS2.V5His6 grown in glucose (GAL1 repressed) or galactose (induced), 5 μg/ml, 2 h",60.7%
same,inhibition at 5 µg/mL,"recombinant Hos2p.V5His6; read-out: % inhibition at 5 μg/ml, Hos2 from S. cerevisiae BY4742/HOS2.V5His6 grown in raffinose (GAL1 repressed) or galactose (induced), 5 μg/ml, 2 h",61.2%
same,inhibition at 5 µg/mL,"recombinant Hos2p.V5His6; read-out: % inhibition at 5 μg/ml, Hos2 from S. cerevisiae Δhos2/HOS2.V5His6 grown in glucose (GAL1 repressed) or galactose (induced), 5 μg/ml, 2 h",55.2%
same,IC50,recombinant Hos2p.V5His6; Hos2 from S. cerevisiae Δhos2/HOS2.V5His6 grown in glucose (GAL1 repressed) or galactose (induced),~15.9 µM
same,inhibition at 5 µg/mL,"recombinant Hos2p.V5His6; read-out: inhibition of purified Hos2 protein, 5 ug/ml, summary of Table 1",> 60%
C[C@@H]1NC(=O)[C@H]2CCCN2C(=O)[C@H](CCCCCC(=O)[C@@H]2CO2)NC(=O)[C@@H](C)NC1=O [HC toxin],sensitivity of the enzyme to the HDAC inhibitor,HosB,highly resistant
"CC(/C=C/C(=O)NO)=C\[C@@H](C)C(=O)c1ccc(N(C)C)cc1 [TSA, trichostatin A]",sensitivity of the enzyme to the HDAC inhibitor,A. nidulans Hda1 enzyme,highly sensitive
same,ability to enhance the sensitivity to azole antifungal agents,Candida glabrata,not found to enhance the sensitivity
same,ability to enhance the sensitivity to azole antifungal agents,C. albicans,able to enhance the sensitivity
same,sensitivity of the enzyme to the HDAC inhibitor,HosB,highly resistant
CC(Cc1ccc(C(C)(C)C)cc1)CN1C[C@@H](C)O[C@@H](C)C1 (stereo partly drawn) [fenpropimorph],hypersensitivity of ScHOS2 deletion mutant to antifungal agent,ScHOS2 deletion mutant,hypersensitive
OC(Cn1cncn1)(Cn1cncn1)c1ccc(F)cc1F [fluconazole],hypersensitivity of ScHOS2 deletion mutant to antifungal agent,ScHOS2 deletion mutant,hypersensitive
same,hypersensitivity of ScRPD3 deletion mutant to antifungal agent,ScRPD3 deletion mutant,not hypersensitive
CCC(C)n1ncn(-c2ccc(N3CCN(c4ccc(OCC5COC(Cn6cncn6)(c6ccc(Cl)cc6Cl)O5)cc4)CC3)cc2)c1=O (stereo not drawn) [itraconazole],difference in sensitivity (MIC80) between WT/ScHOS2 and Δhos2/ScHOS2,[1]; expression of Hos2 induced by galactose,2 fold
same,difference in sensitivity (MIC80) between WT/ScHOS2 and Δhos2/ScHOS2,[1]; grown in the presence of raffinose,4 fold
CC(=O)N1CCN(c2ccc(OCC3COC(Cn4ccnc4)(c4ccc(Cl)cc4Cl)O3)cc2)CC1 (stereo not drawn) [ketoconazole],hypersensitivity of ScHOS2 deletion mutant to antifungal agent,ScHOS2 deletion mutant,hypersensitive
same,hypersensitivity of ScRPD3 deletion mutant to antifungal agent,ScRPD3 deletion mutant,not hypersensitive
C[C@@H]([C@H](N)C(=O)N[C@H](C(=O)O)[C@H]1O[C@@H](n2ccc(=O)[nH]c2=O)[C@H](O)[C@@H]1O)[C@H](O)c1ccc(O)cn1 [nikkomycin],hypersensitivity of ScHOS2 deletion mutant to antifungal agent,ScHOS2 deletion mutant,not hypersensitive
CN(C/C=C/C#CC(C)(C)C)Cc1cccc2ccccc12 [terbinazine],hypersensitivity of ScHOS2 deletion mutant to antifungal agent,ScHOS2 deletion mutant,not hypersensitive
C[C@@H](c1ncncc1F)[C@](O)(Cn1cncn1)c1ccc(F)cc1F [voriconazole],hypersensitivity of ScHOS2 deletion mutant to antifungal agent,ScHOS2 deletion mutant,hypersensitive
